# Reference: patent US8518931B2, “Compounds and compositions as kinase inhibitors” (IRM LLC, priority 2008, dated 2013)
# pIC50: −log10 of the molar value.
# Biological target: T1, NPM-ALK (Homo sapiens, UniProt Q9UM73)
# T1 construct: nucleophosmin (NPM, NPM1; human P06748) fusion partner; expressed in transfected cells; host or cells: murine BaF3 cells (DSMZ), transfected with pCIneo (Promega) coding for NPM-ALK and selected with G418; the other entry of the earlier key: Npm1 (Q61937, Nucleophosmin)
# Assay: NPM-ALK BaF3 assay (growth inhibition of BaF3-NPM-ALK cells)
# Assay type: cell-based
# Conditions: human NPM-ALK overexpressing murine BaF3 cells
# Text: The expression of NPM-ALK may be achieved by transfecting the BaF3 cell line with an expression vector pClneo™ (Promega Corp., Madison Wis., USA) coding for NPM-ALK and subsequent selection of G418 resistant cells. Non-transfected BaF3 cells depend on IL-3 for cell survival. In contrast, NPM-ALK expressing BaF3 cells (named BaF3-NPM-ALK hereinafter) can proliferate in the absence of IL-3 because they obtain proliferative signal through NPM-ALK kinase. Putative inhibitors of the NPM-ALK kinase therefore abolish the growth signal and may result in antiproliferative activity. The antiproliferative activity of putative inhibitors of the NPM-ALK kinase can however be overcome by addition of IL-3, which provides growth signals through an NPM-ALK independent mechanism. An analogous cell system using FLT3 kinase has also been described (see, E Weisberg et al. Cancer Cell; 1, 433-443 (2002)).
# The inhibitory activity of the compounds of the invention may be determined as follows. In general, BaF3-NPM-ALK cells (15,000/microtitre plate well) are transferred to 96-well microtitre plates. Test compounds dissolved in dimethyl sulfoxide (DMSO) are added in a series of concentrations (dilution series) in such a manner that the final concentration of DMSO is not greater than 1% (v/v). After the addition, the plates are incubated for two days during which the control cultures without test compound are able to undergo two cell-division cycles. The growth of the BaF3-NPM-ALK cells is measured by means of YOPRO™ staining [T Idziorek et al. J. Immunol. Methods; 185: 249-258 (1995)]: 25 μl of lysis buffer comprising 20 mM sodium citrate, pH 4.0, 26.8 mM sodium chloride, 0.4% NP40, 20 mM EDTA and […] to each well. Cell lysis is completed within 60 min at room temperature and total amount of YOPRO™ bound to DNA is determined by measurement using the Cytofluor II 96-well reader (PerSeptive Biosystems) with the following settings: Excitation (nm) 485/20 and Emission (nm) 530/25.
# IC50 values may be determined by a computer-aided system using the formula: IC50=[(ABStest−ABSstart)/(ABScontrol−ABSstart)]×100·(ABS=absorption)
# In general, compounds of the invention have IC50 values from 1 nM to 10 μM. In some examples, compounds of the invention have IC50 values from 0.01 μM to 5 μM. In other examples, compounds of the invention have IC50 values from 0.01 μM to 1 μM, or more particularly from 1 nM to 1 μM.
# Table 1 describes representative compounds of the invention, prepared following the procedures described above. IC50 values are as measured in an NPM-ALK BaF3 assay.
# T1 sequence (Q9UM73 with tags, fused parts or gaps): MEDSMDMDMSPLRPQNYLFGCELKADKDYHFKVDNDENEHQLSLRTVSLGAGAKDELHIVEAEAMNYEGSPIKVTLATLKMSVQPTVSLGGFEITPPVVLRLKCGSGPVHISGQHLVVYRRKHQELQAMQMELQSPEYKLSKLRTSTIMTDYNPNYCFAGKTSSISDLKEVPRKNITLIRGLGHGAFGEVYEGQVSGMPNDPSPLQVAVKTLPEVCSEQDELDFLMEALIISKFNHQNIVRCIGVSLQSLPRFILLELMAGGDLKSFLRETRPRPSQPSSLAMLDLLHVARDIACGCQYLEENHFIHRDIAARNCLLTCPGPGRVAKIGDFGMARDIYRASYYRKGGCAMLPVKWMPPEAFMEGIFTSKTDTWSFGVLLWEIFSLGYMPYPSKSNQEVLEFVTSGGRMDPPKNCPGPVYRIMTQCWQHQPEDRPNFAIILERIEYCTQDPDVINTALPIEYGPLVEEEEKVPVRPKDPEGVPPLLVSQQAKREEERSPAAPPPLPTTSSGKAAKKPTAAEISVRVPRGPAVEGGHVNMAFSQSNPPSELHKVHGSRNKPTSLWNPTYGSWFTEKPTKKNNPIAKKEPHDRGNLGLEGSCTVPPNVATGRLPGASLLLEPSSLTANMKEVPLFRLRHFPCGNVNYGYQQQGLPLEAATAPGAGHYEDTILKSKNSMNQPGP
row,pIC50,SMILES
1,7.43,COc1cc(C2CCN(C(=O)[C@H](C)NCCO)CC2)c(C)cc1Nc1nc(Nc2ccccc2S(=O)(=O)C(C)C)n2nccc2n1 [Ex 65]
2,7.49,COc1cc(C2CCN(C(=O)[C@H](C)N(C)C)CC2)c(C)cc1Nc1nc(Nc2ccccc2S(=O)(=O)C(C)C)n2nccc2n1 [Ex 66]
3,7.40,COc1cc(C2CCN(C(=O)[C@H](C)N)CC2)c(C)cc1Nc1nc(Nc2ccccc2S(=O)(=O)C(C)C)n2nccc2n1 [Ex 67]
4,7.77,COc1cc(C2CCN(C(=O)CN)CC2)c(C)cc1Nc1nc(Nc2ccccc2S(=O)(=O)C(C)C)n2nccc2n1 [Ex 68]
5,7.23,COc1cc(C2CCN(C(=O)[C@@H](N)CO)CC2)c(C)cc1Nc1nc(Nc2ccccc2S(=O)(=O)C(C)C)n2nccc2n1 [Ex 69]
6,7.46,"COc1cc(C2CCN(C(=O)[C@H]3COCCN3)CC2)c(C)cc1Nc1nc(Nc2ccccc2S(=O)(=O)C(C)C)n2nccc2n1 [Ex 70, (R)-(4-(4-(4-(2-(isopropylsulfonyl)phenylamino)pyrazolo[1,5-a][1,3,5]triazin-2-ylamino)-5-methoxy-2-methylphenyl)piperidin-1-yl)(morpholin-3-yl)methanone]"
7,7.66,COc1cc(C2CCN(C(=O)[C@@H]3COCCN3)CC2)c(C)cc1Nc1nc(Nc2ccccc2S(=O)(=O)C(C)C)n2nccc2n1 [Ex 71]
8,7.24,COc1cc(C2CCN(C(=O)CCCN(C)C)CC2)c(C)cc1Nc1nc(Nc2ccccc2S(=O)(=O)C(C)C)n2nccc2n1 [Ex 72]
9,7.40,COc1cc(C2CCN(C(=O)CO)CC2)c(C)cc1Nc1nc(Nc2ccccc2S(=O)(=O)C(C)C)n2nccc2n1 [Ex 73]
10,7.55,COCCNCC(=O)N1CCC(c2cc(OC)c(Nc3nc(Nc4ccccc4S(=O)(=O)C(C)C)n4nccc4n3)cc2C)CC1 [Ex 74]
11,7.12,COc1cc(C2CCN(C(=O)CN3CC[C@H](F)C3)CC2)c(C)cc1Nc1nc(Nc2ccccc2S(=O)(=O)C(C)C)n2nccc2n1 [Ex 76]
12,7.44,COc1cc(C2CCN(C(=O)CN3CC[C@H](O)C3)CC2)c(C)cc1Nc1nc(Nc2ccccc2S(=O)(=O)C(C)C)n2nccc2n1 [Ex 77]
13,7.44,COc1cc(C2CCN(C(=O)[C@H](C)N3CC[C@H](O)C3)CC2)c(C)cc1Nc1nc(Nc2ccccc2S(=O)(=O)C(C)C)n2nccc2n1 [Ex 78]
14,7.42,COc1cc(C2CCN(C(=O)[C@H](C)N3CC[C@@H](O)C3)CC2)c(C)cc1Nc1nc(Nc2ccccc2S(=O)(=O)C(C)C)n2nccc2n1 [Ex 79]
15,7.48,COc1cc(C2CCN(C(=O)[C@H](C)N3CCCC3)CC2)c(C)cc1Nc1nc(Nc2ccccc2S(=O)(=O)C(C)C)n2nccc2n1 [Ex 80]
16,7.59,COc1cc(C2CCN(C(=O)[C@@H](C)N3CCC3)CC2)c(C)cc1Nc1nc(Nc2ccccc2S(=O)(=O)C(C)C)n2nccc2n1 [Ex 81]
17,7.64,COc1cc(C2CCN(C3CCOCC3)CC2)c(C)cc1Nc1nc(Nc2ccccc2S(=O)(=O)C(C)C)n2nccc2n1 [Ex 83]
18,7.60,COc1cc(C2CCN(C3CCSCC3)CC2)c(C)cc1Nc1nc(Nc2ccccc2S(=O)(=O)C(C)C)n2nccc2n1 [Ex 84]
19,7.47,COc1cc(C2CCN(C(=O)[C@H]3COC(C)(C)CN3)CC2)c(C)cc1Nc1nc(Nc2ccccc2S(=O)(=O)C(C)C)n2nccc2n1 [Ex 85]
20,7.47,COc1cc(C2CCN(C(=O)[C@H](N)CO)CC2)c(C)cc1Nc1nc(Nc2ccccc2S(=O)(=O)C(C)C)n2nccc2n1 [Ex 86]
21,7.54,COc1cc(C2CCN(C(=O)[C@@H]3COC(C)(C)CN3)CC2)c(C)cc1Nc1nc(Nc2ccccc2S(=O)(=O)C(C)C)n2nccc2n1 [Ex 87]

row,pIC50,SMILES
1,7.33,COc1cc(C2CCN(C(=O)CN3CCOCC3)CC2)c(C)cc1Nc1nc(Nc2ccccc2S(=O)(=O)C(C)C)n2nccc2n1 [Ex 88]
2,7.82,COc1cc(C2CCN(CCC(=O)N3CCC3)CC2)c(C)cc1Nc1nc(Nc2ccccc2S(=O)(=O)C(C)C)n2nccc2n1 [Ex 89]
3,7.89,CNC(=O)CCN1CCC(c2cc(OC)c(Nc3nc(Nc4ccccc4S(=O)(=O)C(C)C)n4nccc4n3)cc2C)CC1 [Ex 90]
4,6.89,CC(C)S(=O)(=O)c1ccccc1Nc1nc(Nc2ccc(C3CCN(CC(N)=O)CC3)cc2)nc2ccnn12 [Ex 91]
5,6.89,CC(C)S(=O)(=O)c1ccccc1Nc1nc(Nc2ccc(C3CCN(CCC(N)=O)CC3)cc2)nc2ccnn12 [Ex 92]
6,6.88,CC(C)S(=O)(=O)c1ccccc1Nc1nc(Nc2ccc(C3CCN(C(=O)CN4CCC4)CC3)cc2)nc2ccnn12 [Ex 93]
7,7.80,COC[C@H](N)C(=O)N1CCC(c2cc(OC)c(Nc3nc(Nc4ccccc4S(=O)(=O)C(C)C)n4nccc4n3)cc2C)CC1 [Ex 94]
8,7.66,COc1cc(C2CCN(C(=O)[C@H](C)N(C)CCO)CC2)c(C)cc1Nc1nc(Nc2ccccc2S(=O)(=O)C(C)C)n2nccc2n1 [Ex 95]
9,7.49,COc1cc(C2CCN(C(=O)[C@@H](C)N3CCCC3)CC2)c(C)cc1Nc1nc(Nc2ccccc2S(=O)(=O)C(C)C)n2nccc2n1 [Ex 96]
10,7.49,COc1cc(C2CCN(C(=O)[C@@H](C)NCCO)CC2)c(C)cc1Nc1nc(Nc2ccccc2S(=O)(=O)C(C)C)n2nccc2n1 [Ex 97]
11,7.89,COc1cc(C2CCN(C(=O)[C@@H](C)N(C)CCO)CC2)c(C)cc1Nc1nc(Nc2ccccc2S(=O)(=O)C(C)C)n2nccc2n1 [Ex 98]
12,7.46,CCN(CC)CCC(=O)N1CCC(c2cc(OC)c(Nc3nc(Nc4ccccc4S(=O)(=O)C(C)C)n4nccc4n3)cc2C)CC1 [Ex 99]
13,7.48,COc1cc(C2CCN(C(=O)CCCN3CCCC3)CC2)c(C)cc1Nc1nc(Nc2ccccc2S(=O)(=O)C(C)C)n2nccc2n1 [Ex 100]
14,7.51,COc1cc(C2CCN(C(=O)CCCN3CCOCC3)CC2)c(C)cc1Nc1nc(Nc2ccccc2S(=O)(=O)C(C)C)n2nccc2n1 [Ex 101]
15,7.31,CCCN(CCC)CC(=O)N1CCC(c2cc(OC)c(Nc3nc(Nc4ccccc4S(=O)(=O)C(C)C)n4nccc4n3)cc2C)CC1 [Ex 102]
16,7.80,CCCNCC(=O)N1CCC(c2cc(OC)c(Nc3nc(Nc4ccccc4S(=O)(=O)C(C)C)n4nccc4n3)cc2C)CC1 [Ex 103]
17,7.31,COc1cc(C2CCN(C(=O)CCN3CCCC3)CC2)c(C)cc1Nc1nc(Nc2ccccc2S(=O)(=O)C(C)C)n2nccc2n1 [Ex 104]
18,7.82,CCNCC(=O)N1CCC(c2cc(OC)c(Nc3nc(Nc4ccccc4S(=O)(=O)C(C)C)n4nccc4n3)cc2C)CC1 [Ex 105]
19,7.80,COc1cc(C2CCN(C(=O)C(C)(CO)CO)CC2)c(C)cc1Nc1nc(Nc2ccccc2S(=O)(=O)C(C)C)n2nccc2n1 [Ex 106]
20,7.80,CCN(CC)CC(=O)N1CCC(c2cc(OC)c(Nc3nc(Nc4ccccc4S(=O)(=O)C(C)C)n4nccc4n3)cc2C)CC1 [Ex 110]
